Data taken from US8563714B2, “Bridged spiro [2.4] heptane derivatives as ALX receptor and/or FPRL2 agonists” (Actelion Pharmaceuticals Ltd., priority 2009, dated 2013).

Assays:
[1] = molecular target: T1, human ALX receptor (Homo sapiens, UniProt P25090); assay: Intracellular calcium measurements (FLIPR), agonistic activity in HEK293-hALXR-Gα16 cells; type: cell-based; conditions: Fluo-4 calcium FLIPR, normalized to WKYMVm 10 nM
T1 construct: expressed in transfected cells; host or cells: HEK293 (HEK293-hALXR-Gα16)
T1 sequence (P25090 1-351): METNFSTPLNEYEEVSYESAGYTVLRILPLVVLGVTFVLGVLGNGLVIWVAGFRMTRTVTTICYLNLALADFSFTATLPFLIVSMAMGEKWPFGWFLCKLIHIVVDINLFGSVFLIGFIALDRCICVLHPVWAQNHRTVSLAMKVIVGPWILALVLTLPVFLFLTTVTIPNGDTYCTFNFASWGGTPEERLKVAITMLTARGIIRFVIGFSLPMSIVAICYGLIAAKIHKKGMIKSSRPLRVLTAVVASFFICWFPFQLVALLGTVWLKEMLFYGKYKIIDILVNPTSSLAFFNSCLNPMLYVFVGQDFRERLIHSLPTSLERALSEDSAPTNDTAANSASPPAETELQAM
Summary of the method: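 Agonist-induced calcium flux was recorded by FLIPR (488/540 nm) in HEK293-hALXR-Gα16 cells pre-loaded with Fluo-4 AM (1 μM, 60 min, 37°C). Peak signal above baseline, after subtracting buffer addition, was expressed relative to WKYMVm at 10 nM final.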

[2] = molecular target: T2, human FPRL2 (Homo sapiens, UniProt P25089); assay: Intracellular calcium measurements (FLIPR), agonistic activity in HEK293-hFPRL2-Gα16 cells; type: cell-based; conditions: Fluo-4 calcium FLIPR, normalized to GLY14-Humanin 100 nM
T2 construct: expressed in transfected cells; host or cells: HEK293 (HEK293-hFPRL2-Gα16)
T2 sequence (P25089 1-353): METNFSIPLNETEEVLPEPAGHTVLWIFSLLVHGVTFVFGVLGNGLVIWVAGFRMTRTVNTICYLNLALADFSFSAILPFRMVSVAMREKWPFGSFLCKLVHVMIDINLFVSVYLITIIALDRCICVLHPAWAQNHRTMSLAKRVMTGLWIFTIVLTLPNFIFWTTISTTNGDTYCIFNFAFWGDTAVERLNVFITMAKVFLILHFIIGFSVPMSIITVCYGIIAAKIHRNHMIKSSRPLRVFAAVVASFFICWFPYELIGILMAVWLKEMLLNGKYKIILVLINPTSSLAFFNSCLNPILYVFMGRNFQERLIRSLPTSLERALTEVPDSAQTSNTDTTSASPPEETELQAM
Summary of the method: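 Peak values after baseline subtraction are expressed relative to 100 nM Gly14-Humanin; compounds diluted in assay buffer from 10 mM DMSO stocks.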

Row | EC50 [1] [nM] | EC50 [2] [nM] | SMILES
1 | 34 | 2220 | CCN(CC)CCNC(=O)[C@H]1[C@H](C(=O)Nc2ccc(Br)cc2)[C@@H]2C=C[C@H]1C21CC1 (racemic) [Example 66, (5R*)—N^5-(4-Bromophenyl)-(6R*)—N^6-(2-diethyl-amino-ethyl)-(4S*,7R*)-[4,7-ethenylene-spiro[2.4]heptane]-5,6-dicarboxamide]
2 | 34 | > 25000 | CCCCCNC(=O)[C@H]1[C@H](C(=O)Nc2ccc(Br)cc2)[C@@H]2C=C[C@H]1C21CC1 (racemic) [Example 67, (5R*)—N^5-(4-Bromophenyl)-(6R*)—N^6-(pentyl)-(4S*,7R*)-[4,7-ethenylene-spiro[2.4]heptane]-5,6-dicarboxamide]
3 | 58 | 708 | CC(C)CCN1CCC(NC(=O)[C@H]2[C@H](C(=O)Nc3ccc(Br)cc3)[C@@H]3C=C[C@H]2C32CC2)CC1 (racemic) [Example 69, (5R*)—N^5-(4-Bromophenyl)-(6R*)—N^6—(N-(3-methyl-butyl)-piperidin-4-yl)-(4S*,7R*)-[4,7-ethenylene-spiro[2.4]heptane]-5,6-dicarboxamide]
4 | 63 | 4610 | O=C(NC1CC1)[C@H]1[C@H](C(=O)Nc2ccc(Br)cc2)[C@@H]2C=C[C@H]1C21CC1 (racemic) [Example 73, (5R*)—N^5-(4-Bromophenyl)-(6R*)—N^6-(cyclopropyl)-(4S*,7R*)-[4,7-ethenylene-spiro[2.4]heptane]-5,6-dicarboxamide]

Second part, the compound before the results:

Row | SMILES | EC50 [1] [nM] | EC50 [2] [nM]
5 | NS(=O)(=O)c1ccc(CCNC(=O)[C@H]2[C@H](C(=O)Nc3ccc(Br)cc3)[C@@H]3C=C[C@H]2C32CC2)cc1 (racemic) [Example 61, (5R*)—N^5-(4-Bromophenyl)-(6R*)—N^6-(2-(4-aminosulfonyl-phenyl)-ethyl)-(4S*,7R*)-[4,7-ethenylene-spiro[2.4]heptane]-5,6-dicarboxamide] | 23 | 2270
6 | CCn1nc(CCNC(=O)[C@H]2[C@H](C(=O)Nc3ccc(Br)cc3)[C@@H]3C=C[C@H]2C32CC2)cc1C (racemic) [Example 62, (5R*)—N^5-(4-Bromophenyl)-(6R*)—N^6-(2-(1-ethyl-5-methyl-1H-pyrazol-3-yl)-ethyl)-(4S*,7R*)-[4,7-ethenylene-spiro[2.4]heptane]-5,6-dicarboxamide] | 24 | 363
7 | CC(C)(C)OC(=O)NCCCCCNC(=O)[C@H]1[C@H](C(=O)Nc2ccc(Br)cc2)[C@@H]2C=C[C@H]1C21CC1 (racemic) [Example 68, (5R*)—N^5-(4-Bromophenyl)-(6R*)—N^6-(5-tert-butoxycarbonyl-amino-pentyl)-(4S*,7R*)-[4,7-ethenylene-spiro[2.4]heptane]-5,6-dicarboxamide] | 27 | 2170
8 | O=C(NCCc1ccccn1)[C@H]1[C@H](C(=O)Nc2ccc(Br)cc2)[C@@H]2C=C[C@H]1C21CC1 (racemic) [Example 70, (5R*)—N^5-(4-Bromophenyl)-(6R*)—N^6-(2-pyridin-2-yl-ethyl)-(4S*,7R*)-[4,7-ethenylene-spiro[2.4]heptane]-5,6-dicarboxamide] | 61 | 4380
9 | CC(C)(CNC(=O)OC(C)(C)C)CNC(=O)[C@H]1[C@H](C(=O)Nc2ccc(Br)cc2)[C@@H]2C=C[C@H]1C21CC1 (racemic) [Example 71, (5R*)—N^5-(4-Bromophenyl)-(6R*)—N^6-(2,2-dimethyl-3-N-tert-butoxycarbonyl-amino-propyl)-(4S*,7R*)-[4,7-ethenylene-spiro[2.4]heptane]-5,6-dicarboxamide] | 63 | 5550
10 | O=C(Nc1ccnn1-c1ccccc1)[C@H]1[C@H](C(=O)Nc2ccc(Br)cc2)[C@@H]2C=C[C@H]1C21CC1 (racemic) [Example 72, (5R*)—N^5-(4-Bromophenyl)-(6R*)—N^6-(1-phenyl-1H-pyrazol-5-yl)-(4S*,7R*)-[4,7-ethenylene-spiro[2.4]heptane]-5,6-dicarboxamide] | 70 | 1850
